Experiment [1] concerns Ba/F3 EGFR Del19/C797S cells. Briefly: Cell proliferation inhibition assay (Cell Titer-Glo), Ba/F3 EGFR Del19/C797S. Particulars: 72 hours, read-out: Ba/F3 EGFR Del19_C797S IC50. Format: cell-based. The gist of the method:
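Ba/F3 cells carrying EGFR Del19/T790M/C797S or Del19/C797S, grown in RPMI 1640 with 10% FBS, were plated overnight and then exposed to serially diluted compound for 72 h at 37° C, 5% CO2. Viability was read by CellTiter-Glo luminescence; IC50 came from a nonlinear fit of inhibition rate against concentration.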

In experiment [2] the target is EGFR L858R/T790M/C797S mutant kinase (Homo sapiens (Human), UniProt P00533, C797S/L858R/T790M). Kind of experiment: HTRF kinase assay, EGFR L858R/T790M/C797S mutant kinase. Format: biochemical. Particulars: 120 minutes at room temperature. The text has this: (§1) Test Example 1. Determination of the Inhibitory Effect of the Compounds of the Present Invention on the Activity of EGFR del19/T790M/C797S and EGFR L858R/T790M/C797S Mutant Kinases
Chain of EGFR L858R/T790M/C797S mutant kinase (P00533 25-1210 T790M/C797S/L858R): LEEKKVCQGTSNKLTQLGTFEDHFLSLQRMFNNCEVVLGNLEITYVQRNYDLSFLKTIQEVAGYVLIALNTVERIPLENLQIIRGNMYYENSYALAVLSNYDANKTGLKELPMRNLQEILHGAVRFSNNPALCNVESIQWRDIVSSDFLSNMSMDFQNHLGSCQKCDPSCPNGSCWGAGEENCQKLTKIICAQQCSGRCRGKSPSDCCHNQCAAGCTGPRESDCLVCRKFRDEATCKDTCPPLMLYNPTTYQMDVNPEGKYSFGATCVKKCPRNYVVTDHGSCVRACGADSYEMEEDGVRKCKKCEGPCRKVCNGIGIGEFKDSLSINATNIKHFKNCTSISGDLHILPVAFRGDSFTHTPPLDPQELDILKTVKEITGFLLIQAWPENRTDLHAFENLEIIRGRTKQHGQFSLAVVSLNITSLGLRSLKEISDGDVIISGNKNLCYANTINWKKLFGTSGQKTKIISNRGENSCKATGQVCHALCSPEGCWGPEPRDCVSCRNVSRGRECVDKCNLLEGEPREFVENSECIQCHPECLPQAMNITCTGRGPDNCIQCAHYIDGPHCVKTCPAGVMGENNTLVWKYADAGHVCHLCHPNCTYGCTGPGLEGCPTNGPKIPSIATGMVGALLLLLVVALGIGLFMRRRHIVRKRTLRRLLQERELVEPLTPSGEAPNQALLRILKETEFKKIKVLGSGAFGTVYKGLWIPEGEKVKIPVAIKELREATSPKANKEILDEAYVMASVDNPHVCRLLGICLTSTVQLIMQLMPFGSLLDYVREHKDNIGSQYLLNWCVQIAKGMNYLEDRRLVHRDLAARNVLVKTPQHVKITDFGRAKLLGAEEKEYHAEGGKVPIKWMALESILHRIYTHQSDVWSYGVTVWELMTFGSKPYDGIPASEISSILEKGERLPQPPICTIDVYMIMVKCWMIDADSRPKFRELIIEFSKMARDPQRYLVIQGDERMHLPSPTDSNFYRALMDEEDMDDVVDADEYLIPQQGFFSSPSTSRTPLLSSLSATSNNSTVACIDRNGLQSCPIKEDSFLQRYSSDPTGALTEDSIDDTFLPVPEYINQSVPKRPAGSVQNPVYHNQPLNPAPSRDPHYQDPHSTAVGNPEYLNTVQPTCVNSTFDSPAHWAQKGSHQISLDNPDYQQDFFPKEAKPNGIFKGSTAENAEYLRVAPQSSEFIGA
(§2) Experimental objective: The objective of this test example is to test the inhibitory activity of the compounds on the activity of EGFR del19/T790M/C797S and EGFR L858R/T790M/C797S mutant kinases.
(§3) Experimental method: This experiment used Cisbio's HTRF kinase assay method (Cisbio #62TK0PEB), wherein a catalytic reaction occurred between the substrate polypeptide TK and ATP in the presence of the tyrosine kinase with EGFR del19/T790M/C797S or EGFR L858R/T790M/C797S mutation, the substance was phosphorylated, and the activity of the kinase was characterized by measuring the content of the phosphorylated substrate generated during the reaction, and the half inhibitory concentration IC50 of the compound on the activity of EGFR del19/T790M/C797S or EGFR L858R/T790M/C797S mutant kinase was obtained.
(§4) Specific Experimental Operations were as Follows: • the kinase reaction was carried out in a white 384-well plate (Perkin Elmer #6008280), and 1-5 μL of compounds of different concentrations which were diluted with 1% DMSO-containing ddH2O were added; to the positive control wells were added 1-5 μL of 1% DMSO-containing ddH2O, followed by 1-5 μL of 0.5-5 nM 4×EGFR del19/T790M/C797S or EGFR L858R/T790M/C797S mutant kinase solution which was diluted with Dilution buffer (5× kinase buffer, MgCl2 6.65 Mm, MnCl2 1.33 mM, DTT 1.33 mM); to the negative control wells were added 1-5 μL of Dilution buffer; to all the wells were added 1-5 μL of 4 μM 4× substrate TK solution which was prepared with 10× Dilution buffer, and finally added 1-5 μL of 24 μM 4×ATP solution which was diluted with Dilution buffer to start the reaction; after reacting at room temperature for 120 minutes, 10 μL of detection solution (TK antibody 16 nM, XL665 0.5 μM) was added to each well, same was reacted at room temperature in the dark for 20 minutes, and then the […] was detected using a BioTek Synergy H1 microplate reader.
(§5) The percent inhibition data for compound-treated wells was calculated according to the positive control wells (DMSO control wells) and negative control wells (no kinase added) on the plate {% inhibition rate=100−[(test compound value−negative control value)]/(positive control value−negative control value)×100}. GraphPad prism was used to fit different concentrations and corresponding percent inhibition rate data to a 4-parameter nonlinear logistic equation to calculate IC50 values.

Experiment [3] deals with Ba/F3 EGFR Del19/T790M/C797S cells. Kind of experiment: Cell proliferation inhibition assay (Cell Titer-Glo), Ba/F3 EGFR Del19/T790M/C797S. Format: cell-based. Particulars: 72 hours, read-out: Ba/F3 EGFR Del19_T790M_C797S IC50. The text has this:
Test Example 2: Cell Proliferation Inhibition Assay
Experimental objective: The objective of this test example is to test the inhibitory activity of compounds on the proliferation of different EGFR C797S drug-resistant mutant cell lines Ba/F3 EGFR Del19/T790M/C797S, Ba/F3 EGFR L858R/T790M/C797S, and Ba/F3 EGFR Del19/C797S.
• Ba/F3 EGFR Del19/T790M/C797S cells were purchased from KYinno Biotechnology Co., Ltd.; • Ba/F3 EGFR Del19/C797S cells were purchased from CoBioer Biosciences Co., Ltd.; • Ba/F3 EGFR L858R/T790M/C797S cells were purchased from CoBioer Biosciences Co., Ltd.; • Cell Titer-Glo was purchased from Promega, with a catalog number of G7573; • RPMI 1640 was purchased from Gibco, with a catalog number of 22400089; • FBS was purchased from Gibco, with a catalog number of 10091148; • cell culture plates were purchased from Corning, with a catalog number of 3610.
The inhibitory activity of the compound on the proliferation of different EGFR C797S drug-resistant mutant cell lines was detected using the Cell Titer-Glo method. The different cell lines were cultured in RPMI 1640 complete culture medium containing 10% FBS under conditions of 37° C. and 5% CO2, the cells were collected by centrifugation when growing to a certain density, and adjusted to appropriate cell density after counting, the cells were spread on a white 96-well plate at 90 μL/well, and cultured in a 37° C., 5% CO2 incubator overnight, prepared compound solutions of different concentrations were added at 10 μL/well, corresponding solvent controls were set, and all wells were cultured in a 37° C., 5% CO2 incubator for 72 hours, 50 μL of CellTiter-Glo solution was added to each well, shook and mixed evenly, and incubated in the dark for 10 minutes, and a BioTek Synergy H1 microplate reader was used for reading.
The luminescence signal value was used to calculate the inhibition rate. Graphpad Prism software was used to fit the concentration and inhibition rate to a nonlinear regression curve, so as to obtain the IC50 value, as shown in Tables 3 and 4 below for details.

The target in experiment [4] is EGFR del19/T790M/C797S mutant kinase (Homo sapiens, UniProt P00533, C797S/DEL746-750/T790M). Briefly: HTRF kinase assay, EGFR del19/T790M/C797S mutant kinase. Type of experiment: biochemical. The settings on record: 120 minutes at room temperature.
Chain of EGFR del19/T790M/C797S mutant kinase (P00533 with tags, fused parts or gaps C797S/DEL746-750/T790M limits assumed): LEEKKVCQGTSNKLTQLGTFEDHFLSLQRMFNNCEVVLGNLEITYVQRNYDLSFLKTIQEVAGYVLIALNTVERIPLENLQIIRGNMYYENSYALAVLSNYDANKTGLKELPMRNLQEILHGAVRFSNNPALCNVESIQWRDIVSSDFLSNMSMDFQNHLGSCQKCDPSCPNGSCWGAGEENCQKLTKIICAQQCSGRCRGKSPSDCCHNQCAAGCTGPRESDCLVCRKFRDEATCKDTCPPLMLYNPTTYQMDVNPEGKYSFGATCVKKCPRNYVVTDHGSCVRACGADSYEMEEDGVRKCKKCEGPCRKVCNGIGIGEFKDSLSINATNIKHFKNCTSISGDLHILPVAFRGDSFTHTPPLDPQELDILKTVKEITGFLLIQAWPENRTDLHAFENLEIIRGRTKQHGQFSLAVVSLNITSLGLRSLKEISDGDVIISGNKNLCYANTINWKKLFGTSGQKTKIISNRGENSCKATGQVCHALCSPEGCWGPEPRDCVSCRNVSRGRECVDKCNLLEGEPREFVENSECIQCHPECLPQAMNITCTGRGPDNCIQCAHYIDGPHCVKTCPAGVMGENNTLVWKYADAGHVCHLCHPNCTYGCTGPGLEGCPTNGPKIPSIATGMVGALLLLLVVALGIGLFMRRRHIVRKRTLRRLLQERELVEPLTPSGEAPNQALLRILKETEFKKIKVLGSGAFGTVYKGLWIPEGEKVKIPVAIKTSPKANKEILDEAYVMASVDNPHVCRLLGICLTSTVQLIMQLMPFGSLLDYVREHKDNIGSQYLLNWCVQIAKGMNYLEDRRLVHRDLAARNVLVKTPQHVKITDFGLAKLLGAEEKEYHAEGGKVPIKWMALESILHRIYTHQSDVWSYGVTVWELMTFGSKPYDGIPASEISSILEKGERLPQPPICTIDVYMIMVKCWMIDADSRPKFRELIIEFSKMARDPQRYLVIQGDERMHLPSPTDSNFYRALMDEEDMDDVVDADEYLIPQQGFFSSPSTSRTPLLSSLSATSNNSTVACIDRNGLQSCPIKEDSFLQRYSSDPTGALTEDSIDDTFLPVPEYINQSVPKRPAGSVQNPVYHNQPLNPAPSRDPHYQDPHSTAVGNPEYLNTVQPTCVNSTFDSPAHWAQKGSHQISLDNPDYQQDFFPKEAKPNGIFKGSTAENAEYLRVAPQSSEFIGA
Excerpt: as §1, §2, §3, §4, §5
For orientation: In TR-FRET formats the signal depends on donor and acceptor labels being close together.

The structures appear in SMILES notation.

Regarding `CC(C)c1ccc(N2CC(CS(C)(=O)=O)C2)c2cnc(Nc3ccnc(-c4cnn(S(=O)(=O)C5CC5)c4)n3)cc12` [Example 1, N-(2-(1-(cyclopropylsulfonyl)-1H-pyrazol-4-yl)pyrimidin-4-yl)-5-isopropyl-8-(3-((methanesulfonyl)methyl)azetidin-1-yl)isoquinolin-3-amine], the IC50 came out at 14 nM in experiment [1], 0.51 nM in experiment [2], 10 nM in experiment [3] and 0.58 nM in experiment [4].
With `CC(C)c1ccc(N2C[C@H](CS(C)(=O)=O)[C@H]2C)c2cnc(Nc3ccnc(-c4cnn(C5CCN(C)CC5)c4)n3)cc12` [Example 14, 5-isopropyl-8-((2R,3S)-2-methyl-3-((methanesulfonyl)methyl)azetidin-1-yl)-N-(2-(1-(1-methylpiperidin-4-yl)-1H-pyrazol-4-yl)pyrimidin-4-yl)isoquinolin-3-amine], the IC50 worked out at 54 nM in experiment [1], 0.73 nM in experiment [2] and 3.6 nM in experiment [4].
Take `CC(C)c1ccc(N2C[C@H](CS(C)(=O)=O)[C@H]2C)c2cnc(Nc3ccnc(-c4cnn(C5CC5)c4)n3)cc12` [Example 15, N-(2-(1-cyclopropyl-1H-pyrazol-4-yl)pyrimidin-4-yl)-5-isopropyl-8-((2R,3S)-2-methyl-3-((methanesulfonyl)methyl)azetidin-1-yl)isoquinolin-3-amine]: the figures for the IC50 in experiment [1], in experiment [2] and in experiment [4] were 41 nM, 1.9 nM and 2.5 nM, respectively.
In the case of `CC(C)c1ccc(N2C[C@H](CS(C)(=O)=O)[C@H]2C)c2cnc(Nc3ccnc(-c4cn[nH]c4)n3)cc12` [Example 17, N-(2-(1H-pyrazol-4-yl)pyrimidin-4-yl)-5-isopropyl-8-((2R,3S)-2-methyl-3-((methanesulfonyl)methyl)azetidin-1-yl)isoquinolin-3-amine], the IC50 in experiment [2] came to 0.71 nM; in experiment [4] it was 3 nM.
As to `CC(C)c1ccc(N2C[C@H](CS(C)(=O)=O)[C@H]2C)c2cnc(Nc3ccnc(-c4cnn(CC5(C#N)CC5)c4)n3)cc12` [Example 19, 1-((4-(4-((5-isopropyl-8-((2R,3S)-2-methyl-3-((methanesulfonyl)methyl)azetidin-1-yl)isoquinolin-3-yl)amino)pyrimidin-2-yl)-1H-pyrazol-1-yl)methyl)cyclopropane-1-carbonitrile], the IC50 in experiment [2] came out at 1 nM; in experiment [4], 2.5 nM.
As to `CC(C)c1ccc(N2C[C@H](CS(C)(=O)=O)[C@H]2C)c2cnc(Nc3ccnc(-c4cnn(C5COC5)c4)n3)cc12` [Example 20, 5-isopropyl-8-((2R,3S)-2-methyl-3-((methanesulfonyl)methyl)azetidin-1-yl)-N-(2-(1-(oxetan-3-yl)-1H-pyrazol-4-yl)pyrimidin-4-yl)isoquinolin-3-amine], the IC50 in experiment [2] turned out to be 0.92 nM; in experiment [4], 6.2 nM.
Regarding `CC(C)c1ccc(N2C[C@H](CS(C)(=O)=O)[C@H]2C)c2cnc(Nc3ccnc(-c4cnn(CC5CCO5)c4)n3)cc12` (stereo partly drawn) [Example 21, 5-isopropyl-8-((2R,3S)-2-methyl-3-((methanesulfonyl)methyl)azetidin-1-yl)-N-(2-(1-(oxetan-2-ylmethyl)-1H-pyrazol-4-yl)pyrimidin-4-yl)isoquinolin-3-amine], the IC50 in experiment [1] was 96 nM; in experiment [2], 0.6 nM; in experiment [4], 3.9 nM.
Consider `CC(C)c1ccc(N2C[C@H](CS(C)(=O)=O)[C@H]2C)c2cnc(Nc3ccnc(-c4cnn(C)c4)n3)cc12` [Example 24, 5-isopropyl-N-(2-(1-methyl-1H-pyrazol-4-yl)pyrimidin-4-yl)-8-((2R,3S)-2-methyl-3-((methanesulfonyl)methyl)azetidin-1-yl)isoquinolin-3-amine], for which the IC50 turned out to be 29 nM in experiment [1], 0.3 nM in experiment [2], 10 nM in experiment [3] and 3.6 nM in experiment [4].
Turning to `CC(C)c1ccc(N2C[C@H](CS(C)(=O)=O)[C@H]2C)c2cnc(Nc3ccnc(-c4cnn(CC(F)(F)F)c4)n3)cc12` [Example 26, 5-isopropyl-8-((2R,3S)-2-methyl-3-((methanesulfonyl)methyl)azetidin-1-yl)-N-(2-(1-(2,2,2-trifluoroethyl)-1H-pyrazol-4-yl)pyrimidin-4-yl)isoquinolin-3-amine], the values for the IC50 in experiment [1] and in experiment [2] were 78 nM and 1 nM, respectively.
As to `CC(C)c1ccc(N2C[C@H](CS(C)(=O)=O)[C@H]2C)c2cnc(Nc3ccnc(-c4cnn(CCF)c4)n3)cc12` [Example 27, N-(2-(1-(2-fluoroethyl)-1H-pyrazol-4-yl)pyrimidin-4-yl)-5-isopropyl-8-((2R,3S)-2-methyl-3-((methanesulfonyl)methyl)azetidin-1-yl)isoquinolin-3-amine], the IC50 in experiment [1] was found to be 40 nM; in experiment [2], 1.9 nM; in experiment [4], 8.9 nM.
With `COCC1(Cn2cc(-c3nccc(Nc4cc5c(C(C)C)ccc(N6C[C@H](CS(C)(=O)=O)[C@H]6C)c5cn4)n3)cn2)CC1` [Example 66, 5-isopropyl-N-(2-(1-((1-(methoxymethyl)cyclopropyl)methyl)-1H-pyrazol-4-yl)pyrimidin-4-yl)-8-((2R,3S)-2-methyl-3-((methanesulfonyl)methyl)azetidin-1-yl)isoquinolin-3-amine], the IC50 in experiment [1] was found to be 78 nM; in experiment [2] it was 0.17 nM.

The record behind these values is US20250368616A1, “NITROGEN-CONTAINING HETEROCYCLIC DERIVATIVE INHIBITOR, AND PREPARATION METHOD THEREFOR AND USE THEREOF” (SHANGHAI HANSOH BIOMEDICAL CO., LTD., priority 2021, published 2025).
